Measurements from patent US7884107B2, “Substituted piperidines that increase P53 activity and the uses thereof” (Merck, priority 2006, dated 2011).

Target: HDM2 protein (Homo sapiens, UniProt Q00987)
Experiment: fluorescence polarization screening assay (FP)
Type: binding
Conditions: inhibitory concentration that achieves 50% of maximal activity

Chain of HDM2 protein (Q00987 whole entry): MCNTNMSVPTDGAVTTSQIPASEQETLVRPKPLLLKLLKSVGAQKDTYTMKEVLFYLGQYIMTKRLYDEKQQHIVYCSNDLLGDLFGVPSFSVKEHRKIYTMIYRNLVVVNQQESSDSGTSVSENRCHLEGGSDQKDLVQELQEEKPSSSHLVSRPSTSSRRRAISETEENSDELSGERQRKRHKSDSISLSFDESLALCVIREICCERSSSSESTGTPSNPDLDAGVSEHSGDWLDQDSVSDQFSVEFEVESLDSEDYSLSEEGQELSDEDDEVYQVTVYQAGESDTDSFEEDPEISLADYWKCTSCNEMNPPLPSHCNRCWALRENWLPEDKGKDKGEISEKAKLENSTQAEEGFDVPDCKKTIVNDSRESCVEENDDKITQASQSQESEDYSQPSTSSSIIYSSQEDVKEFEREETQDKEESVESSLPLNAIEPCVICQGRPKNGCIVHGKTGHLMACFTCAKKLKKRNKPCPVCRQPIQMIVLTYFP

SMILES	IC50
CC(=O)Nc1ccccc1N1CCN(C(=O)C2(Oc3ccc(Br)c(F)c3)CCCN(C(=O)c3cnccc3C(F)(F)F)C2)CC1 (centres unmarked) [AU]	510 nM
COc1ccccc1N1CCN(C(=O)C2(Oc3ccc(C(F)(F)F)cc3)CCCN(C(=O)c3cnccc3C(F)(F)F)C2)C(C(=O)NCCO)C1 (centres unmarked) [CR]	950 nM
